18 molecules from ChEMBL document CHEMBL4619777, “A New Class of Dengue and West Nile Virus Protease Inhibitors with Submicromolar Activity in Reporter Gene DENV-2 Protease and Viral Replication Assays” (J Med Chem, 2020) can be followed below.

Residues, ends and D or L forms follow the SMILES beside them. *: point of attachment. Bz = O=C(c1ccccc1)*

In series [1] the target is Genome polyprotein (West Nile virus, UniProt P06935). As to the kind of experiment: Inhibition of West Nile virus NS2B-NS3 protease expressed in Escherichia coli BL21 lambda (DE3) cells using Abz-Gly-Leu-Lys-Arg-Gly-Gly-3-(NO2)Tyr as substrate preincubated for 15 mins followed by substrate addition measured for 15 mins by fluorimetric analysis.
Series [2] concerns the target T1, Genome polyprotein (dengue virus type 2, UniProt P29990). Description: Inhibition of Dengue virus serotype 2 NS2B-NS3 protease expressed in Escherichia coli BL21 lambda (DE3) cells using Abz-Nle-Lys-Arg-Arg-Ser-3-(NO2)Tyr as substrate preincubated for 15 mins followed by substrate addition and measured for 15 mins by FRET assay.
The target of series [3] is Genome polyprotein (dengue virus type 2) (UniProt P29990). As to the kind of experiment: Inhibition of Dengue virus serotype 2 NS2B-NS3 protease transfected in human HeLa cells at 12.5 uM measured after 24 hrs by Renilla-luciferase reporter gene assay relative to control. It is filed as cell-based. Background: A reporter such as luciferase makes a cellular process visible.

A short description of series [4]: Cytotoxicity against human HeLa cells assessed as reduction in cell viability measured after 24 hrs by celltiter-blue assay. In kind it is cell-based.
Series [5] addresses Genome polyprotein (dengue virus type 2) (UniProt P29990). As to the kind of experiment: Inhibition of Dengue virus serotype 2 NS2B-NS3 protease expressed in Escherichia coli BL21 lambda (DE3) cells at 50 uM using Abz-Nle-Lys-Arg-Arg-Ser-3-(NO2)Tyr as substrate preincubated for 15 mins followed by substrate addition and measured for 15 mins by FRET assay relative to control.

For another series, the target named is Trypsin (Homo sapiens, UniProt P07477+P07478+P35030). Description: Inhibition of trypsin (unknown origin) at 50 uM using Boc-Val-Pro-Arg-AMC as substrate preincubated for 15 mins followed by substrate addition and measured for 15 mins by fluorimetric assay relative to control. The note with it: 0.25 h, 50 µM. It is filed as protein assay.
In series [6] the target is Genome polyprotein (West Nile virus) (UniProt P06935). Description: Inhibition of West Nile virus NS2B-NS3 protease expressed in Escherichia coli BL21 lambda (DE3) cells at 50 uM using Abz-Gly-Leu-Lys-Arg-Gly-Gly-3-(NO2)Tyr as substrate preincubated for 15 mins followed by substrate addition measured for 15 mins by fluorimetric analysis relative to control.
The target in a further series is Prothrombin (Homo sapiens, UniProt P00734). Description: Inhibition of thrombin (unknown origin) at 25 uM using Boc-Val-Pro-Arg-AMC as substrate preincubated for 15 mins followed by substrate addition and measured for 15 mins by fluorimetric assay. To be noted: 0.25 h.
Series [7] deals with T1, Genome polyprotein. As to the kind of experiment: Inhibition of Dengue virus serotype 2 NS2B-NS3 protease transfected in human HeLa cells measured after 24 hrs by Renilla-luciferase reporter gene assay. In kind it is cell-based.

In general, IC50 refers to the point on the concentration scale where inhibition reaches its midpoint. In general, inhibition refers to the drop in the measured response relative to a control, in per cent. As a reminder, the CC50 is the concentration giving 50% cytotoxicity. As usually defined, the EC50 is the concentration needed to bring the measured effect to its halfway point. Low readings indicate an effect from little substance, high ones a need for much substance.

Sequence of Genome polyprotein (West Nile virus) (P06935 whole entry): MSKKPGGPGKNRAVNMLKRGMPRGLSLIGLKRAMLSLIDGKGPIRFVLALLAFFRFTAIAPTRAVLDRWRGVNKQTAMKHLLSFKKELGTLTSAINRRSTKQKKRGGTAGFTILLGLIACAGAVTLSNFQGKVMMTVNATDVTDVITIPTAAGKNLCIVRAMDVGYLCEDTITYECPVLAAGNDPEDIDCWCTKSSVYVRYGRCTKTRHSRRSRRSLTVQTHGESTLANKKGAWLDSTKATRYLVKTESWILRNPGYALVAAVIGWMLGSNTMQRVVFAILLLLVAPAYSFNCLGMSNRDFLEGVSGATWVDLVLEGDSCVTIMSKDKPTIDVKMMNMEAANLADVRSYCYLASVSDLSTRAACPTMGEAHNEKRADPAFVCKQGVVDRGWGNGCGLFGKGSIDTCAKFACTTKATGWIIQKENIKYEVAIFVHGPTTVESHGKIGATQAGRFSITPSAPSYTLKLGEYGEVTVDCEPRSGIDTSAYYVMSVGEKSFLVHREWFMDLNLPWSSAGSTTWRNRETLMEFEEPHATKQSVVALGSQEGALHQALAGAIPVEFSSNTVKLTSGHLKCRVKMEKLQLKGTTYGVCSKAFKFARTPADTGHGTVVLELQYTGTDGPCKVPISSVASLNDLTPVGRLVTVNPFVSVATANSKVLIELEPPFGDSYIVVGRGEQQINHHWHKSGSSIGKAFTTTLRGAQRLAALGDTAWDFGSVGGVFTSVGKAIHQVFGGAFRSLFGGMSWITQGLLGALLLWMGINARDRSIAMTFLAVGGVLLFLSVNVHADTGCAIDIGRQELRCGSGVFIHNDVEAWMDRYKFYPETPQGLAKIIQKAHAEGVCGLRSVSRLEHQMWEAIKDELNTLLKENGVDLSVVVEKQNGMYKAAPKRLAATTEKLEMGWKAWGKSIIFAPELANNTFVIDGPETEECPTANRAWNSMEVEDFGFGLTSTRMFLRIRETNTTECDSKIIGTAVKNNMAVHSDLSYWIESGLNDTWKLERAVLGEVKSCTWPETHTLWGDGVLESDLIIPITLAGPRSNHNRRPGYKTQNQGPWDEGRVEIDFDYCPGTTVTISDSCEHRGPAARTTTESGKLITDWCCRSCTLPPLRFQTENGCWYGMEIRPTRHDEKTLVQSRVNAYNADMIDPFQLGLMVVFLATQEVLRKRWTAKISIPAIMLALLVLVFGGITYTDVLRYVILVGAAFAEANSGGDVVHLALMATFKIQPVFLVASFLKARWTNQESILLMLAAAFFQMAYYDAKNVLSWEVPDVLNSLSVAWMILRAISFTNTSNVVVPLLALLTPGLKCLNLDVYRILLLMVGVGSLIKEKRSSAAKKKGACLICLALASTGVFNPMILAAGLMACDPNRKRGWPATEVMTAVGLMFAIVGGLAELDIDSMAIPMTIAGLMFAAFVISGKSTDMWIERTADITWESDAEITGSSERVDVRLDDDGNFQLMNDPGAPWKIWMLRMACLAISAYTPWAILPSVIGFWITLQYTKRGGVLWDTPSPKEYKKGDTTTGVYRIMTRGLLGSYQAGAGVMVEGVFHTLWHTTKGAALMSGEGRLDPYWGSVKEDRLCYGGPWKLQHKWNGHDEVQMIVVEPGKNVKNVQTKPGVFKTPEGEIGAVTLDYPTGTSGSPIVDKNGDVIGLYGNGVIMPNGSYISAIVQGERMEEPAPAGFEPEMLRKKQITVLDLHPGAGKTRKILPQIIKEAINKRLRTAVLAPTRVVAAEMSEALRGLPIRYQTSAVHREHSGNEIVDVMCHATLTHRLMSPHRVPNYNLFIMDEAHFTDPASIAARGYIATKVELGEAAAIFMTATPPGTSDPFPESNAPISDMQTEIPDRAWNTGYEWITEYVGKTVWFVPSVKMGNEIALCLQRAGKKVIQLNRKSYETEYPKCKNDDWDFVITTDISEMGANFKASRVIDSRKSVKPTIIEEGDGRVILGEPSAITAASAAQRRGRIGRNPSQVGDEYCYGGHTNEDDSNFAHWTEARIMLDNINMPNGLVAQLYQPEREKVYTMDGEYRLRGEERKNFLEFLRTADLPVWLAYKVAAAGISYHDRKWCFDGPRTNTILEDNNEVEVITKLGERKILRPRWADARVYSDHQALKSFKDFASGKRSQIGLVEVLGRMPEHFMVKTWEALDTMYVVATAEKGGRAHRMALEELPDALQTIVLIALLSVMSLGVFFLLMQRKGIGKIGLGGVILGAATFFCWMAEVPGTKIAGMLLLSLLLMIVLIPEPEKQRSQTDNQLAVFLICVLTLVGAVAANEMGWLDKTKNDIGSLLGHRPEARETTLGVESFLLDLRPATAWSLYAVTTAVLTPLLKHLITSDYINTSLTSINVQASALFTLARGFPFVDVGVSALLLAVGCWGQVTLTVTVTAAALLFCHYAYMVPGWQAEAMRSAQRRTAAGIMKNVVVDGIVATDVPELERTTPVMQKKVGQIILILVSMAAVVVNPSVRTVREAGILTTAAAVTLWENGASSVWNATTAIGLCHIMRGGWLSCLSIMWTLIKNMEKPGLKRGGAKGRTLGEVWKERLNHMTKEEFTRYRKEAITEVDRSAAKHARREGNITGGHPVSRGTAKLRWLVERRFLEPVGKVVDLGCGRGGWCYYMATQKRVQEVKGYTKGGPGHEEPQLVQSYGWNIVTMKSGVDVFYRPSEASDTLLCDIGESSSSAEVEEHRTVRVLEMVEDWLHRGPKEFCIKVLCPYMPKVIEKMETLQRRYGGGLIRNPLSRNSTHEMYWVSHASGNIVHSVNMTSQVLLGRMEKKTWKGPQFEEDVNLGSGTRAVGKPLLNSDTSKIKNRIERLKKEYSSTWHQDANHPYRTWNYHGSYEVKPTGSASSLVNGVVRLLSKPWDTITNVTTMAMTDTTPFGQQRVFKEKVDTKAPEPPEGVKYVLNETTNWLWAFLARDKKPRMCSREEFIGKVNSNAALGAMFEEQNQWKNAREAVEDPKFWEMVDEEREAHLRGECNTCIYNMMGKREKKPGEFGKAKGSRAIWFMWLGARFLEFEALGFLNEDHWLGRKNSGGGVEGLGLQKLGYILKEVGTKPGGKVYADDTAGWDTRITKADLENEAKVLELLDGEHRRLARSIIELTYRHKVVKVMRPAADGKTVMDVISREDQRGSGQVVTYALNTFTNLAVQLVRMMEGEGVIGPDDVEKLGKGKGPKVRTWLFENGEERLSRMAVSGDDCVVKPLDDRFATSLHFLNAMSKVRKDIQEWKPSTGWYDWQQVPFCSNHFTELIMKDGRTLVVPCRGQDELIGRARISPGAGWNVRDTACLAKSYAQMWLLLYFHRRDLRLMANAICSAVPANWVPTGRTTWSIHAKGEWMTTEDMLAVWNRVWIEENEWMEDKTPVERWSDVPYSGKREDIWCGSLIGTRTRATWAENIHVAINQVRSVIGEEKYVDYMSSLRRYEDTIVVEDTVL
Sequence of Genome polyprotein (West Nile virus, UniProt P06935) (P06935 1371-1501 limits assumed): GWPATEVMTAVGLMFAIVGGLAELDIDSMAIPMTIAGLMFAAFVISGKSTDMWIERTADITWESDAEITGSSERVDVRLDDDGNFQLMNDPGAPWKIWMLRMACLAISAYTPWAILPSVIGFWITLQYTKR
Sequence of Genome polyprotein (West Nile virus, UniProt P06935) (P06935 1502-2120 limits assumed): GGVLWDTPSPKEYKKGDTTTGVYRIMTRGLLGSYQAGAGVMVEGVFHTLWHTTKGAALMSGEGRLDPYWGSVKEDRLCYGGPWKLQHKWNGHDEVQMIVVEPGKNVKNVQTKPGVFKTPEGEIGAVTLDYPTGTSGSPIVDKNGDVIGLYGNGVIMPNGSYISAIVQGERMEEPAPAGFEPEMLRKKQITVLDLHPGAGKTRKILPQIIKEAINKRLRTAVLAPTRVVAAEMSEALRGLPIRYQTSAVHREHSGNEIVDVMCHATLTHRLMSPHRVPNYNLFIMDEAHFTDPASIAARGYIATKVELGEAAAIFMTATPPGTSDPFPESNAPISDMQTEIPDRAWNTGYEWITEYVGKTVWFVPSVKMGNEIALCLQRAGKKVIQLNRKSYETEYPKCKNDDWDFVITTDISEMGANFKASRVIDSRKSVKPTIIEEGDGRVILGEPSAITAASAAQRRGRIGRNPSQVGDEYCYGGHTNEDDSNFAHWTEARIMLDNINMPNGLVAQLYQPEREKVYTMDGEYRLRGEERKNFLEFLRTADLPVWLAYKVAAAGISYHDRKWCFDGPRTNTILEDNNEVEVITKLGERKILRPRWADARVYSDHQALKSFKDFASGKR

Regarding `CCCCCC(=O)N[C@@H](C(=O)NCc1ccc(NC(=N)N)cc1)c1ccc(OCc2ccc(C(F)(F)F)cc2)cc1.O=C(O)C(F)(F)F`, the figures for the IC50 at Genome polyprotein [1] and against Genome polyprotein [2] were 14 µM and 6.6 µM, respectively. Moreover, the results for the inhibition in series [3], in [5] and in series [6] were 44.6%, 96.7% and 102%, respectively. In addition, the CC50 at 24 h in series [4] was more than 50 µM. The “inhibition (INH)” value against Trypsin and on Prothrombin was “Not Active” in each case.

In the case of `CCCCC(=O)N[C@H](C(=O)NCc1ccc(NC(=N)N)cc1)c1ccc(OCc2ccccc2)cc1.O=C(O)C(F)(F)F`, the inhibition in series [3] was 69.4%; in [5], 22%; in [6], 11.2%. Moreover, the cytotoxic concentration (CC50) at 24 h in series [4] is more than 50 µM. The “inhibition (INH)” value against Trypsin and at Prothrombin was “Not Active” throughout. Moreover, the EC50 at Genome polyprotein [7] worked out at 2.8 µM.

For `CCCCCC(=O)N[C@H](C(=O)NCCCCCCNC(=N)N)c1ccc(OCc2ccccc2)cc1`, the values for the inhibition in series [3], in [5] and in [6] were 61%, less than 10% and 28.3%, respectively. The CC50 at 24 h in series [4] was more than 50 µM. Also, the “inhibition (INH)” value against Trypsin and at Prothrombin was “Not Active” throughout. This molecule gave an EC50 at Genome polyprotein [7] of 7.7 µM.

In turn, `N=C(N)NCCC[C@H](NC(=O)c1ccccc1)C(=O)N[C@@H](CCCCN)C(=O)NCC(N)=O` (Bz-Arg-Lys-Gly-NH2) showed an IC50 against Genome polyprotein [2] of 23 µM. The inhibition in series [3] was less than 10%; in [5], 68.6%; in [6], 15.3%. The “inhibition (INH)” value at Trypsin and against Prothrombin was “Not Active” throughout.

Turning to `CCCCCC(=O)N[C@@H](C(=O)NCc1ccc(CN)cc1)c1ccc(OCc2ccc(Cl)c(Cl)c2)cc1.O=C(O)C(F)(F)F`, the IC50 amounted to 11 µM against Genome polyprotein [1] and 3.1 µM at Genome polyprotein [2]. In addition, in series [4], the CC50 at 24 h was less than 12.5 µM. The inhibition worked out at 95.2% in series [5] and 100% in series [6]. Further, the “inhibition (INH)” value on Trypsin and against Prothrombin was “Not Active” in each case.

`CCCCCC(=O)N[C@H](C(=O)Nc1ccc(N)cc1)c1ccc(OCc2ccccc2)cc1.O=C(O)C(F)(F)F`: the inhibition in series [3] stood at 49.5%; in [5], 13.2%; in [6] it was 10.7%. The half-maximal cytotoxic concentration (CC50) at 24 h in series [4] is more than 50 µM. Further, the “inhibition (INH)” value against Trypsin and on Prothrombin was “Not Active” in each case.

Take `N=C(N)Nc1ccc(CNC(=O)[C@@H](NC(=O)c2ccccc2-c2ccccc2)c2ccc(OCc3ccccc3)cc2)cc1.O=C(O)C(F)(F)F`: the IC50 at Genome polyprotein [1] was 35 µM; against Genome polyprotein [2] it was 24 µM. The inhibition in series [3] came out at 30.1%; in [5], 93.3%; in series [6], 88.1%. The CC50 at 24 h in series [4] was more than 50 µM. The “inhibition (INH)” value against Trypsin and on Prothrombin was “Not Active” throughout.

On Genome polyprotein [2], `CCCCCC(=O)N[C@H](C(=O)NCc1ccc(NC(=N)N)cc1)c1ccc(OCc2ccc(C#N)cc2)cc1.O=C(O)C(F)(F)F` displayed an IC50 of 40 µM. Besides, the inhibition in series [3] turned out to be 12.7%; in series [5] it was 74.3%; in series [6] it was 24.8%. Further, the half-maximal cytotoxic concentration (CC50) at 24 h in series [4] was more than 50 µM. In addition, the “inhibition (INH)” value against Trypsin and against Prothrombin was “Not Active” in each case.

Take `CCCCCC(=O)N[C@H](C(=O)NCc1ccc(NC(N)=O)cc1)c1ccc(OCc2ccccc2)cc1`: the inhibition in series [3] worked out at 24%; in series [5], 23.1%; in [6] it was 34.2%. Further, in [4], the CC50 at 24 h was more than 50 µM. Moreover, the “inhibition (INH)” value against Trypsin and against Prothrombin was “Not Active” each time.

As for `CCCCCC(=O)N[C@H](C(=O)NCc1cccc(CNC(=N)N)c1)c1ccc(OCc2ccccc2)cc1`, the inhibition amounted to 47.4% in series [3], 43.8% in [5] and 32.7% in series [6]. For the same molecule, the CC50 at 24 h in series [4] was more than 50 µM. Besides, the “inhibition (INH)” value against Trypsin and against Prothrombin was “Not Active” throughout.

With `N=C(N)Nc1ccc(CNC(=O)[C@@H](NC(=O)c2ccc(OCc3ccc(Cl)cc3)cc2)c2ccc(OCc3ccccc3)cc2)cc1.O=C(O)C(F)(F)F`, the IC50 is 2.5 µM against Genome polyprotein [1] and 2.2 µM against Genome polyprotein [2]. For the same molecule, the inhibition in series [3] is 44.6%; in series [5], 98.7%; in [6] it was 103%. Besides, the CC50 at 24 h in series [4] was more than 12.5 µM. The “inhibition (INH)” value against Trypsin and at Prothrombin was “Not Active” each time.

Take `CCCCCC(=O)N[C@H](C(=O)NCc1ccc(NC(=O)CN)cc1)c1ccc(OCc2ccccc2)cc1`: the inhibition is 10.1% in series [3], 28.2% in series [5] and less than 10% in series [6]. Also, the cytotoxic concentration (CC50) at 24 h in [4] is more than 50 µM. The “inhibition (INH)” value against Trypsin and against Prothrombin was “Not Active” throughout.

For `CCCCCC(=O)N[C@H](C(=O)NCc1ccc(C#N)cc1)c1ccc(OCc2ccccc2)cc1`, the inhibition in [3] is 28.3%; in series [5], less than 10%; in [6], 25.6%. Besides, in series [4], the CC50 at 24 h is more than 50 µM. The “inhibition (INH)” value at Trypsin and against Prothrombin was “Not Active” in each case.

Regarding `CCCCCC(=O)N[C@H](C(=O)NCc1ccc(N)cc1)c1ccc(OCc2ccccc2)cc1.O=C(O)C(F)(F)F`, the results for the inhibition in series [3], in [5] and in [6] were 43%, 13% and 13.5%, respectively. In [4], the CC50 at 24 h is more than 50 µM. Moreover, the “inhibition (INH)” value on Trypsin and against Prothrombin was “Not Active” throughout.

Regarding `N=C(N)Nc1ccc(CNC(=O)[C@@H](NC(=O)CC2CCCCC2)c2ccc(OCc3ccccc3)cc2)cc1.O=C(O)C(F)(F)F`, the IC50 worked out at 28 µM against Genome polyprotein [1] and 9 µM against Genome polyprotein [2]. Besides, the inhibition in series [3] was found to be 41.7%; in [5], 100%; in series [6] it was 99.5%. Besides, in series [4], the CC50 at 24 h is more than 50 µM. Moreover, the “inhibition (INH)” value at Trypsin and at Prothrombin was “Not Active” each time.

On to `CCCCCC(=O)N[C@H](C(=O)NCc1ccccc1)c1ccc(OCc2ccccc2)cc1`, for which the inhibition in series [3], in series [5] and in [6] was less than 10% each time. Besides, the CC50 at 24 h in [4] is more than 50 µM. Also, the “inhibition (INH)” value against Trypsin and against Prothrombin was “Not Active” throughout.

Consider `CCCCCC(=O)N[C@H](C(=O)NCc1ccc(NC(=N)N)cc1)c1ccc(OCc2ccc(C(C)(C)C)cc2)cc1.O=C(O)C(F)(F)F`, for which the IC50 on Genome polyprotein [1] amounted to 16 µM; against Genome polyprotein [2], 13 µM. The inhibition in [3] worked out at 38.7%; in series [5], 98.1%; in [6] it was 98.9%. Also, in series [4], the CC50 at 24 h was more than 12.5 µM. The “inhibition (INH)” value at Trypsin and at Prothrombin was “Not Active” each time.

With `CCCCCC(=O)N[C@H](C(=O)N[C@@H](CCCCN)C(N)=O)c1ccc(OCc2ccccc2)cc1`, the inhibition in [3] is 11.1%; in series [5], less than 10%; in series [6], less than 10%. Also, the CC50 at 24 h in [4] is more than 50 µM. The “inhibition (INH)” value on Trypsin and against Prothrombin was “Not Active” in each case.
